The results in this text go back to patent US20180078655A1, “IMMUNOCONJUGATES FOR SPECIFIC INDUCTION OF T CELL CYTOTOXICITY AGAINST A TARGET CELL” (priority 2015, published 2018).

The test system of the assay is A-375, PC-3, HCT-116 tumor cell lines. The assay can be described thus: LDH release assay and xCELLigence, FLU peptide immunoconjugate. It is filed as cell-based, human. As to conditions: xCELLigence, 6, 10 and 18 hours.

As for CTELKLSDY [free peptide], the “tumor cell killing over the course of time” value is “usually decreased in higher incubation times”.
